8 molecules from ChEMBL document CHEMBL4725405, “Synthesis and evaluation of 17α-triazolyl and 9α-cyano derivatives of estradiol” (Bioorg Med Chem, 2020) can be followed below.

Molecules are shown by their SMILES.

Assay [1] concerns the target T1, Estrogen receptor beta (Homo sapiens, UniProt Q92731). Kind of assay: Displacement of fluormone from GST-tagged ERbeta receptor LBD (unknown origin) measured after 60 mins by TR-FRET competitive binding assay relative to control. Particulars: filed as agonist. (In general: Time-resolved FRET reads energy transfer from a long-lived donor to a nearby acceptor.)
For assay [2], the target named is T2, Estrogen receptor (Homo sapiens) (UniProt P03372).
T2 sequence (whole entry): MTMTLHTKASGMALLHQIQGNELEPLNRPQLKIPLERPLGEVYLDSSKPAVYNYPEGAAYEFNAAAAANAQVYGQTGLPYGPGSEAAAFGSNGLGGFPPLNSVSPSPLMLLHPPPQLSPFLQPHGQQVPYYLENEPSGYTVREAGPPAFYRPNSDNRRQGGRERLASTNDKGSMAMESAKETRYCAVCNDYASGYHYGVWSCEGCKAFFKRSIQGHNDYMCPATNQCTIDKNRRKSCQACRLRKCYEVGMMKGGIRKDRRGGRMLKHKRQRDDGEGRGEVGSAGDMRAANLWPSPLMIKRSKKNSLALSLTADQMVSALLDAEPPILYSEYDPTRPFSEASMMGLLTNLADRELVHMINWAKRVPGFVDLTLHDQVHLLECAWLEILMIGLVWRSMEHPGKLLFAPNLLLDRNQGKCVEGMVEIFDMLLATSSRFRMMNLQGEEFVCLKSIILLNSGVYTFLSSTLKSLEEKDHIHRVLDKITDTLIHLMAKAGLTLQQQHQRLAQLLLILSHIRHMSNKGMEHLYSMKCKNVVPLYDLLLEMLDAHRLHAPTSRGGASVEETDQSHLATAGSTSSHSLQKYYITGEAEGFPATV
Kind of assay: Agonist activity at full length human ERalpha receptor assessed as transcriptional activity incubated for 22 to 24 hrs by cell based luciferase reporter gene assay relative to control. Particulars: filed as agonist.

Assay [3] addresses T1, Estrogen receptor beta.
The target of assay [4] is T3, Estrogen receptor (Homo sapiens, UniProt P03372).
T3 sequence (P03372 whole entry): T2 sequence (whole entry)

Assay [5] deals with T3, Estrogen receptor. The source holds these as a separate data set.
Description: Antagonist activity at full length human ERalpha receptor assessed as inhibition of estradiol-induced activation incubated for 22 to 24 hrs by cell based luciferase reporter gene assay
Assay [6] deals with T1, Estrogen receptor beta. The source holds these as a separate data set.
Description: Antagonist activity at full length human ERbeta receptor assessed as inhibition of estradiol-induced activation incubated for 22 to 24 hrs by cell based luciferase reporter gene assay
Assay [7] concerns the target T1, Estrogen receptor beta. The source holds these as a separate data set.
Description: Agonist activity at full length human ERbeta receptor assessed as transcriptional activity incubated for 22 to 24 hrs by cell based luciferase reporter gene assay

T1 sequence (Q92731 whole entry, the tested form may be a part): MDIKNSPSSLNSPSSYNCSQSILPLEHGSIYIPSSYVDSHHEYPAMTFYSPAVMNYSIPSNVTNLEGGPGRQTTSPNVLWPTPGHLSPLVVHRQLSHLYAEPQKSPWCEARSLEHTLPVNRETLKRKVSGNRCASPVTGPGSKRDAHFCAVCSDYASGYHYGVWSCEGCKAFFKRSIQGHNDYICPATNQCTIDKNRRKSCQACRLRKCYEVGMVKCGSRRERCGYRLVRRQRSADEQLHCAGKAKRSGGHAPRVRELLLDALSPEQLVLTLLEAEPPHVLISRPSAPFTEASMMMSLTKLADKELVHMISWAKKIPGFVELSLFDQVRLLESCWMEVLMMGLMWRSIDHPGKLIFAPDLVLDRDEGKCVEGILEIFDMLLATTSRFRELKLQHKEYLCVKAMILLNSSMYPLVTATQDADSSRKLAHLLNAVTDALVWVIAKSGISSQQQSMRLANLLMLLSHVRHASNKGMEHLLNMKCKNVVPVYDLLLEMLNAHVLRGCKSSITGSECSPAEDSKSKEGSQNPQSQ

`C[C@]12CC[C@@H]3c4ccc(O)cc4CC[C@H]3[C@@H]1CC[C@@]2(O)c1cn(-c2cccc(O)c2)nn1`: the results for the Activity (on Estrogen receptor beta [1]; in assay [2]) were 60% and 46%, respectively. The EC50 (usually the concentration that produces a half-maximal response) on Estrogen receptor beta [3] was 12 nM; on Estrogen receptor [4] it was 68 nM; at Estrogen receptor [5], > 1 µM; at Estrogen receptor beta [6], > 10 µM; at Estrogen receptor beta [7], 21 nM.
On to `C#C[C@]1(O)CC[C@H]2[C@@H]3CCc4cc(O)ccc4[C@@]3(C#N)CC[C@@]21C`, for which the EC50 is 51 nM on Estrogen receptor beta [3]; 22 nM on Estrogen receptor [4]; > 10 µM on Estrogen receptor [5]; > 10 µM at Estrogen receptor beta [6]; 14 nM on Estrogen receptor beta [7].
For the molecule `C[C@]12CC[C@]3(C#N)c4ccc(O)cc4CC[C@H]3[C@@H]1CC[C@@H]2O`, the EC50 was 0.27 nM on Estrogen receptor beta [3]; 0.38 nM on Estrogen receptor [4]; > 5 µM on Estrogen receptor [5]; > 0.025 µM at Estrogen receptor beta [6]; 0.029 nM at Estrogen receptor beta [7].
With `C[C@]12CC[C@@H]3c4ccc(O)cc4CC[C@H]3[C@@H]1CC[C@@]2(O)c1cn(-c2ccc(O)cc2)nn1`, the 50% effective concentration (EC50) at Estrogen receptor beta [3] was 0.65 nM; at Estrogen receptor [4], 0.87 nM; on Estrogen receptor [5], > 10 µM; on Estrogen receptor beta [6], > 10 µM; on Estrogen receptor beta [7], 0.81 nM.
`C[C@]12CC[C@]3(C#N)c4ccc(O)cc4CC[C@H]3[C@@H]1CC[C@@]2(O)c1cn(CCO)nn1` gave an EC50 on Estrogen receptor beta [3] of 4400 nM. This lies in the single-digit micromolar range.
On to `C[C@]12CC[C@@H]3c4ccc(O)cc4CC[C@H]3[C@@H]1CC[C@@]2(O)c1cn(CCO)nn1`, for which the EC50 is 50 nM on Estrogen receptor beta [3]; 149 nM on Estrogen receptor [4]; > 10 µM on Estrogen receptor [5]; > 10 µM on Estrogen receptor beta [6]; 16 nM on Estrogen receptor beta [7].
In the case of `C[C@]12CC[C@@H]3c4ccc(O)cc4CC[C@H]3[C@@H]1CC[C@@]2(O)c1cn(-c2ccccc2)nn1`, the EC50 at Estrogen receptor [4] is 5 nM; on Estrogen receptor [5], > 1 µM.
Turning to `C[C@]12CC[C@]3(C#N)c4ccc(O)cc4CC[C@H]3[C@@H]1CCC2=O`, the EC50 at Estrogen receptor beta [3] was 78 nM; on Estrogen receptor [4], 88 nM; at Estrogen receptor [5] it was > 10 µM; at Estrogen receptor beta [6], > 5 µM; on Estrogen receptor beta [7] it was 9 nM.
